Data from US20220184025A1, “NOVEL DEPSIDE DIMERIC COMPOUNDS FOR SKELETAL MUSCLE MODULATION, METHODS AND USES THEREOF” (SOCIETE DES PRODUITS NESTLE S.A., priority 2019, published 2022).

Tested on: mouse hindlimb muscles
Assay: In vivo muscle regeneration after cardiotoxin injury
Conditions: mice, oral gavage 100 mg/kg body weight once a day from one week before cardiotoxin injury; muscles harvested 5 days after the injury; vs. water control
Description: Early phase of expansion and subsequent phase of myogenic differentiation of Muscle Stem Cells were evaluated by counting the number of Pax7+ cells (A) and myogenin+ cells (B), respectively. Data are expressed as number of cells per area of injured muscle. The size of each newly formed myofiber (C) has been measured based on the expression of the eMHC and laminin that allow to recognize and delineate these nascent myofibers. Results are shown as mean myofiber cross-sectional area (μm2).
In order to reproduce the physiological process of muscle regeneration that occurs in adult skeletal muscles in response to injury or disease, we performed an intramuscular injection of cardiotoxin into mouse hindlimb muscles. One week prior to the induction of the muscle injury, mice were given by oral gavage diffractaic acid (at 100 mg/kg body weight) vs. water control. Mice were treated once a day until the end of the experiment. To evaluate the efficiency of the muscle regeneration, muscles that have been previously injured were harvested 5 days after the injury and cryosections were prepared. Several myogenic markers were then measured. […]
Data are expressed as number of cells per area of injured muscle. The size of each newly formed myofiber (FIG. 10C) has been measured based on the expression of the eMHC and laminin that allow to recognize and delineate these nascent myofibers. […]

COc1cc(C)c(C(=O)Oc2cc(C)c(C(=O)O)c(O)c2C)c(OC)c1C [Diffractaic acid, Benzoic acid, 2,4-dimethoxy-3,6-dimethyl-, 4-carboxy-3-hydroxy-2,5-dimethylphenyl ester]
in vivo muscle regeneration process: able to promote the in vivo muscle regeneration process
